Reference: patent US10695434B2, “Preventing central nervous system induced nausea through use of vitamin B12 conjugation” (Syracuse University, priority 2018, dated 2020)

Columns and labels:
[1] = Conditioned taste avoidance (CTA), two-bottle test (nausea/malaise); type: in vivo, Sprague Dawley rats; details: rats, IP, B12-Ex4 5 μg/kg, LiCl 0.15M
Description: Rats (n=8-10 per drug) were evaluated for expression of a CTA to a flavor paired with B12-Ex4 (5 μg/kg, IP). […] See Supplemental Methods for more details.

Human recombinant TCII = target: T1, Human recombinant TCII (Homo sapiens, UniProt P20062); assay: TCII binding, radio chase assay using 57Co-labelled B12
T1 sequence (P20062 19-427): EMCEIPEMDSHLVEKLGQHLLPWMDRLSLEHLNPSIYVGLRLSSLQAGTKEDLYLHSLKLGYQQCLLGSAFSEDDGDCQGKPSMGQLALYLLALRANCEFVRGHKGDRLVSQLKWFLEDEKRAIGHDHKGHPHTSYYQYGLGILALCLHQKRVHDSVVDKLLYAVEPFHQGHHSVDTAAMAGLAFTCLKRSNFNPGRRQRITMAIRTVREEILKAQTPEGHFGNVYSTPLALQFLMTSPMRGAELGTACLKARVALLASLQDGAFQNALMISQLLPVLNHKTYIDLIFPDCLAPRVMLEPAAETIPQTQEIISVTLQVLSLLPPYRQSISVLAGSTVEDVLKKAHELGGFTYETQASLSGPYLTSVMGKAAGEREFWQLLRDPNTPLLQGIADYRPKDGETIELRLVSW
Text: FIG. 1 is a series of graphs of (A) Synthetic scheme for Cy5-B12, Cy5 alkyne was “clicked” onto a B12-azide conjugate. (B) RP-HPLC of Cy5-B12 showing purity ≥98% and LC-MS showing 1031[M+2H]^+2, 1042[M+Na+2H]^+2, and 1050 [M+K+2H]^+2, consistent with the conjugate. (C) Excitation and emission spectra of Cy5-B12 at 645 and 682 nm, respectively. […] Note that B12-Ex4 agonism at the GLP-1 receptor was previously reported (68 pM).
One addition to the characterization was the measure of TCII binding of B12-Ex4 (FIG. 1D), which was conducted at the Department of Clinical Medicine-Clinical Biochemistry, University of Aarhus, Denmark as described. […] Injections were separated by at least 48 h. For most in vivo experiments, injections were administered using a within-subjects, Latin square design. The exception was the conditioned taste avoidance (CTA) study, which used a between-subjects design.
In addition, the food intake- and body weight-suppressive effects of GLP-1R agonists have highlighted the utility of these pharmacotherapies for the treatment of obesity.

[2] = Oral glucose tolerance test (OGTT); type: in vivo, Sprague Dawley rats; details: rats
Description: Rats (n=12) were deprived of food overnight before testing. On the morning of testing, just after the onset of the […], water was also removed from the cage. A small drop of blood was collected from the tail tip and analyzed for blood glucose (BG) level using a standard glucometer (AccuCheck). Immediately after this baseline BG reading (t=−30 min), each rat received SC injection of B12-Ex4 (5 or 20 μg/kg) or vehicle (1 ml/kg sterile saline); doses of drug were selected based on the results of the feeding study. Thirty minutes later (t=0 min), BG was measured and each rat received an oral gavage of glucose (2 g/kg). Subsequent BG readings were taken at 20, 40, 60, and 120 min after glucose gavage. After the final BG reading, food and water were returned.
(§1) Pre-weighed food was returned to the rats after the OGTT, and chow intake was measured for ˜21.5 h (e.g., until 24 h after the SC injections). Spillage was accounted for in food intake measurements. Body weight was recorded at 0 and 24 h. For the OGTT, n=10 rats were tested; food and body weight data were collected from n=9 due to a technical error in food intake measurement.

[3] = Oral glucose tolerance test, food intake and nausea (kaolin consumption) in diabetic lean rats; type: in vivo; details: Goto-Kakazaki rats; Ex-4 20 ug/Kg, B12-Ex4 equimolar, liraglutide 100 ug/Kg, 60 min pre-glucose
Description: FIG. 8 is a series of graphs showing a standard oral glucose tolerance test performed in Goto-Kakazaki rats, a form of naturally diabetic lean rat, along with food intake and nausea measurements.
Referring to FIG. 8, Testing of Ex-4 at 20 ug/Kg, B12-Ex4 at equimolar to Ex-4, and liraglutide at 100 ug/Kg were screened for glucoregulation, food intake reduction and nausea (kaolin consumption). All drugs were administered at 60 minutes pre-glucose bolus, food intake and nausea were tracked over 6 hours.

[4] = Energy balance: chow intake and body weight after SC injection; type: in vivo, Sprague Dawley rats; details: rats
Description: Shortly before the onset of the dark phase, rats (n=12) were given subcutaneous (SC) injection of B12-Ex4 (1, 5, or 20 μg/kg) or vehicle (1 ml/kg sterile saline). Chow intake was measured at 1, 3, 6, and 24 h post-injection. Food spillage was accounted for in all intake measurements. Body weight was also measured at 0 and 24 h.
as §1

[5] = Intraperitoneal glucose tolerance test (IPGTT); type: in vivo, C57BL/6J mice; details: mice
Description: The experimental procedure for IPGTT in mice was similar to that used for OGTT in rats. Briefly, mice (n=13; 8 females, 5 males) were food and water deprived for 4 h before and during the IPGTT. Testing was completed mid-light phase. Blood was collected from the tail tip and analyzed for BG. […] Thirty minutes later (t=0 min), BG was measured and each mouse received an IP injection of glucose (2 g/kg). Subsequent BG readings were taken at 20, 40, 60, and 120 min after glucose injection. After the final BG reading, food and water were returned. Area under the curve (AUC) was calculated from 0-120 min (e.g., beginning at the time of glucose administration) using the trapezoidal method.

Compound: [Cl-].[Li+] [LiCl, lithium chloride]
- acceptance of the drug-paired flavor (CTA) [1]: produce avoidance of the drug-paired flavor

Compound: Cyanocobalamin [cyano-B12]
- Kd (Human recombinant TCII): 0.98 nM

Compound: exendin-4 [Ex4]
- blood glucose by drug on its own (t=0, before glucose) ([2]; SC 5 or 20 μg/kg, 30 min after injection): increased BG on its own
- blood glucose levels in the OGTT (overall) ([2]; SC 5 or 20 μg/kg, oral glucose 2 g/kg): pronounced hyperglycemic response
- BG late after glucose gavage ([2]; B12-Ex4: both doses at 60 min, higher dose at 120 min, Ex4: 40, 60, 120 min): remained significantly elevated
- hyperglycemia in OGTT [3]: does do
- food intake in the 21.5 h after OGTT ([4]; SC 5 or 20 μg/kg, vs vehicle): ate significantly less
- body weight gain, 24 h ([4]; SC, vehicle versus 20 μg/kg p<0.05): gained less body weight
- BG prior to IP glucose injection (t=0) ([5]; 30 min after IP drug): reduced BG levels
- blood glucose levels in the IPGTT ([5]; IP Ex4 5 μg/kg or equimolar B12-Ex4, IP glucose 2 g/kg): strongly attenuated the increase in blood glucose levels
- BG at 20 min, Ex4 compared to B12-Ex4 ([5]; p<0.05): more potent effect
- blood glucose area under the curve 0-120 min ([5]; post-glucose load, vs saline): hypoglycemic effects
